# Data: PMC9329436, “Optimization of the 4-anilinoquin(az)oline scaffold as epidermal growth factor receptor (EGFR) inhibitors for chordoma utilizing a toxicology profiling assay platform” (Scientific Reports, 2022)
# Read-outs that look alike come from different tables or passages of the source.
# Tests used:
# Assay type in all cases: biochemical
# [1] = target: 320 wild-type protein kinases (Homo sapiens, UniProt P11802); settings: singlicate
# Description: (§1) Table S4. Profiling of two compounds at two concentrations against 320 wild-type protein kinases; singlicate measurement; Residual activities (% of control).
# [2] = target: T1, 320 wild-type protein kinases (Homo sapiens, UniProt P51817); settings: kinase PRKX, singlicate
# T1 sequence (P51817 1-358): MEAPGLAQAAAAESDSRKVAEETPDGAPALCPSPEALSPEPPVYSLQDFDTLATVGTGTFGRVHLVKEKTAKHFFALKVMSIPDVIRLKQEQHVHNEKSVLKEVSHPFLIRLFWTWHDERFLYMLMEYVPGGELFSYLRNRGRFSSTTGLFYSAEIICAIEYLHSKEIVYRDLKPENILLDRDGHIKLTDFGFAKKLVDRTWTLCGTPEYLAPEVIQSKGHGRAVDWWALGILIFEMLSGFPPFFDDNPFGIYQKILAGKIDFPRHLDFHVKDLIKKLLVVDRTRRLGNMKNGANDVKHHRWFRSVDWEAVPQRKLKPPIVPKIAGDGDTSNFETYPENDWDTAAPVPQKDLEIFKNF
# Description: as §1
# [3] = target: T2, 320 wild-type protein kinases (Homo sapiens, UniProt O00141); settings: kinase SGK1, singlicate
# T2 sequence (O00141 1-431): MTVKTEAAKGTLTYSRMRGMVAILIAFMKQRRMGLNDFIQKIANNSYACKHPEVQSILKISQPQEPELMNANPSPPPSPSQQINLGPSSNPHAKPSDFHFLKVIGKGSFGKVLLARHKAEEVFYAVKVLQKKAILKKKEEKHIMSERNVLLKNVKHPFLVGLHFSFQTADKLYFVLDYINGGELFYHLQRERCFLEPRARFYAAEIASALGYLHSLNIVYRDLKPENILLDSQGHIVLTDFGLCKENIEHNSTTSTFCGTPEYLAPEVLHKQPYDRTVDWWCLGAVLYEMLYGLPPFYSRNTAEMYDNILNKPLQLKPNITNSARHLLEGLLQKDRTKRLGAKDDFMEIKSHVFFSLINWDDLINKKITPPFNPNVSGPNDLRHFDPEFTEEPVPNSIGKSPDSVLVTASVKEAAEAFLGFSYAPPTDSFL
# Description: as §1
# [4] = target: 320 wild-type protein kinases (Homo sapiens, UniProt P11362); settings: singlicate
# Chain of 320 wild-type protein kinases (Homo sapiens, UniProt P11362) (P11362 22-822): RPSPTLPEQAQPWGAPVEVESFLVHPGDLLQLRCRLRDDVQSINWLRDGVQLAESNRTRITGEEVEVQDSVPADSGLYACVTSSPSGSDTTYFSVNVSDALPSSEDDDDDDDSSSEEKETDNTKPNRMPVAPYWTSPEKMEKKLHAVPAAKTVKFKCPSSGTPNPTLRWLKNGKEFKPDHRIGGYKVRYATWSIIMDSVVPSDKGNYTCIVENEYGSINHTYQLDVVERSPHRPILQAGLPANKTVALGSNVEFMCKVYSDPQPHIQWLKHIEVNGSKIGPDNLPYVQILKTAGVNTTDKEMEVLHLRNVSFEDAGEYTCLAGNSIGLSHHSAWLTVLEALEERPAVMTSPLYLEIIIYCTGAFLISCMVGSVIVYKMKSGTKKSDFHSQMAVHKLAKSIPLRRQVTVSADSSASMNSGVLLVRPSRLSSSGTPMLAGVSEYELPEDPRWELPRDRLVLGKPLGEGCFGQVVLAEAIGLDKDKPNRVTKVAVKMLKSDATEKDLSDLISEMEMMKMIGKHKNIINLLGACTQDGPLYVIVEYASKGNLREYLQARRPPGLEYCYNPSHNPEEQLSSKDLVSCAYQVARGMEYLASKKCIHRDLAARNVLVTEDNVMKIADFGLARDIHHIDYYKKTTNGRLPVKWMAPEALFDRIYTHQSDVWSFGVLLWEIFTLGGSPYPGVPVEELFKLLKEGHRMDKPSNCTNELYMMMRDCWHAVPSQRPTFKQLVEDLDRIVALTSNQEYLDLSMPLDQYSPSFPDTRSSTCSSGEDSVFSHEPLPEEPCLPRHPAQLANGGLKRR
# Description: as §1
# [5] = target: T3, 320 wild-type protein kinases (Homo sapiens, UniProt P29320); settings: singlicate
# T3 sequence (P29320 21-983): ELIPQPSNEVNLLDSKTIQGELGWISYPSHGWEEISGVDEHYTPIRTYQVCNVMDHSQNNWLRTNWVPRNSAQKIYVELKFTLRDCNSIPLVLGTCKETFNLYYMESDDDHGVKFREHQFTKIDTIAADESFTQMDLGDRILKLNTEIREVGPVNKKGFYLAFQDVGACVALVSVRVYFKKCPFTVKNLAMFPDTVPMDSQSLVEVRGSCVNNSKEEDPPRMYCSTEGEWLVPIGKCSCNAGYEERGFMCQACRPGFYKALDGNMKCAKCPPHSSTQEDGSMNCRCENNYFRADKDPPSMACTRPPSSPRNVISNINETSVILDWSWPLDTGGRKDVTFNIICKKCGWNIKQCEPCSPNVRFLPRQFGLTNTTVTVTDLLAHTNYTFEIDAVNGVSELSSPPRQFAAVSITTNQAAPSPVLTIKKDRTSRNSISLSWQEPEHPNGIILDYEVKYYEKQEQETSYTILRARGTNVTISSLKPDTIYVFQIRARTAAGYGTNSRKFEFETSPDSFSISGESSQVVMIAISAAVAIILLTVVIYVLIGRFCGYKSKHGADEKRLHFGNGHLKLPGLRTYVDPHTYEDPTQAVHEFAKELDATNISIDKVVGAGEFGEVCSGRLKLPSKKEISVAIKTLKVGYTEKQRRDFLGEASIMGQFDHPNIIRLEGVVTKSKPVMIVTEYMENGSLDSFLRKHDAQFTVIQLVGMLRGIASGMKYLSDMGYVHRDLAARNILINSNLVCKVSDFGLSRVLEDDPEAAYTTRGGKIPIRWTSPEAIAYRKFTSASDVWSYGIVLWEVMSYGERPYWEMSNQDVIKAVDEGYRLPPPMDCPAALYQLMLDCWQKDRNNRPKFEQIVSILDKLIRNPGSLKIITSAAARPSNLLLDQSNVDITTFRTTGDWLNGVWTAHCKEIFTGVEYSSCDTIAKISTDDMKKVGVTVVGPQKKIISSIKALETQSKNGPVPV
# Description: as §1
# [6] = target: T4, 320 wild-type protein kinases (Homo sapiens, UniProt P51813); settings: BMX, singlicate
# T4 sequence (P51813 1-675): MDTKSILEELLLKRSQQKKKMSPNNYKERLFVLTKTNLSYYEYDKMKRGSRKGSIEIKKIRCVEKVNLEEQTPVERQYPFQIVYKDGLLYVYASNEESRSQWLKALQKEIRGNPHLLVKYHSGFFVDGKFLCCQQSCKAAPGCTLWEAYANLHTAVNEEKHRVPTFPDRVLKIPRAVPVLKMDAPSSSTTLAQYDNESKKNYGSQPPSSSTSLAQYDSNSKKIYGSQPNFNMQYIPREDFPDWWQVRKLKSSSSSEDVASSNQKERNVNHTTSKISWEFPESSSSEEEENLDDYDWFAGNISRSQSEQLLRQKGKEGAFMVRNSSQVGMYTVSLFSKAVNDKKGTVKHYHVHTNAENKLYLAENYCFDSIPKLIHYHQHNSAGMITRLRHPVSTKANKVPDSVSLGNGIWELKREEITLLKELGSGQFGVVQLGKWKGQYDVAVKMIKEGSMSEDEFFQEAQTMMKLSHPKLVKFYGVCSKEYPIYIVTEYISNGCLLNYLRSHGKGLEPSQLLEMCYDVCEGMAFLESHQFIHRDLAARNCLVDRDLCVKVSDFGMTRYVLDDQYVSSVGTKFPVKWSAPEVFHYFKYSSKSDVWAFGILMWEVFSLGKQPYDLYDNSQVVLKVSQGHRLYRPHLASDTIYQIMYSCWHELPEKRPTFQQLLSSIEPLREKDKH
# Description: as §1
# [7] = target: 320 wild-type protein kinases (Homo sapiens, UniProt P80192); settings: singlicate
# Chain of 320 wild-type protein kinases (Homo sapiens, UniProt P80192) (P80192 whole entry): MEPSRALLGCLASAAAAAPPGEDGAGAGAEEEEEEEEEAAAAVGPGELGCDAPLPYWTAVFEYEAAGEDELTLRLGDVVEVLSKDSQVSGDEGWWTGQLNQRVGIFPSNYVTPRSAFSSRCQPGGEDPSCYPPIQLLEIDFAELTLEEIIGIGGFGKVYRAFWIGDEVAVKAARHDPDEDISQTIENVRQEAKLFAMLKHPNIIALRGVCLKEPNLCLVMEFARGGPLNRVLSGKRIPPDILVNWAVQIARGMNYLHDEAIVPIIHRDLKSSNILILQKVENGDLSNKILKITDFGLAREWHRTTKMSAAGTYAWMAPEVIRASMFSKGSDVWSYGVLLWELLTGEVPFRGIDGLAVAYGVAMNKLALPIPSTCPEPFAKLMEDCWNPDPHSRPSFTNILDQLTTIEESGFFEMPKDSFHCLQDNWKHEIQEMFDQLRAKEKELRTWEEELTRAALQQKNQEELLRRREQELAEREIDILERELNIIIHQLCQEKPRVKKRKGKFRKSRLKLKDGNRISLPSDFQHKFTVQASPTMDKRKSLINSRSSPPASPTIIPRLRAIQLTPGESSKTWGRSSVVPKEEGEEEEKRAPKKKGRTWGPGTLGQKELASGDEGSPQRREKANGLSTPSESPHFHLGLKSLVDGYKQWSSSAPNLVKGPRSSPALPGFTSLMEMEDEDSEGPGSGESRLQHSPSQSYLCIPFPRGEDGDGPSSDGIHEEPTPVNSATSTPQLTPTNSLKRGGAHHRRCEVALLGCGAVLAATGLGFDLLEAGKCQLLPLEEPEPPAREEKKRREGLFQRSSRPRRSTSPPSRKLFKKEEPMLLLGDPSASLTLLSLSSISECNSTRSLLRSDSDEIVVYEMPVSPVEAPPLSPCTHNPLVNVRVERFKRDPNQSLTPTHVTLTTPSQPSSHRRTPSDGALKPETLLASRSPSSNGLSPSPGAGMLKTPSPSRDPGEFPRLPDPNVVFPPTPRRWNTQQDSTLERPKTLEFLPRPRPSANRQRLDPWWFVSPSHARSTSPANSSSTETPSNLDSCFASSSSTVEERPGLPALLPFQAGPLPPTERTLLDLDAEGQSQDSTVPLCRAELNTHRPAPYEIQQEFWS
# Description: as §1
# Chain of 320 wild-type protein kinases (Homo sapiens, UniProt P11802) (P11802 whole entry): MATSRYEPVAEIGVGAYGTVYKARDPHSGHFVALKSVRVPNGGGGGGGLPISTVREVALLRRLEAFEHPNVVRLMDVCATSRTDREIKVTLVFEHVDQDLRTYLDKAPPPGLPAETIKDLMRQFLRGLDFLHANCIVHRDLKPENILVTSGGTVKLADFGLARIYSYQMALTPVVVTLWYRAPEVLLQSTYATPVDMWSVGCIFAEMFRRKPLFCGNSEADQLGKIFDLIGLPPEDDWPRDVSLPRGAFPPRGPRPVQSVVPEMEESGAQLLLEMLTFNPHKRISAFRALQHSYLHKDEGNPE
Compound,"Residual activity ([1]; CDK4/CycD1, 1.0E-06 M)","Residual activity ([1]; CDK4/CycD1, 1.0E-07 M)","Residual activity ([1]; CDK4/CycD3, 1.0E-06 M)","Residual activity ([1]; CDK4/CycD3, 1.0E-07 M)","Residual activity, PRKX ([2]; assay conc. 1.0E-06 M)","Residual activity, PRKX ([2]; assay conc. 1.0E-07 M)","Residual activity, SGK1 ([3]; assay conc. 1.0E-06 M)","Residual activity, SGK1 ([3]; assay conc. 1.0E-07 M)","Residual activity ([4]; FGF-R1, 1.0E-06 M)","Residual activity ([4]; FGF-R1, 1.0E-07 M)","Residual activity ([5]; EPHA3, 1.0E-06 M)","Residual activity ([5]; EPHA3, 1.0E-07 M)",Residual activity ([6]; 1.0E-06 M),Residual activity ([6]; 1.0E-07 M),"Residual activity ([7]; MAP3K9, 1.0E-06 M)","Residual activity ([7]; MAP3K9, 1.0E-07 M)"
C#Cc1cc(Nc2ncnc3cc(I)ccc23)ccc1Cl [Compound 41],79 % of control,75 % of control,87 % of control,94 % of control,123 % of control,138 % of control,77 % of control,103 % of control,85 % of control,107 % of control,119 % of control,118 % of control,77 % of control,86 % of control,87 % of control,97 % of control
C#Cc1cc(Nc2ncnc3cc(OC)c(OC)cc23)ccc1Cl [Compound 45],95 % of control,87 % of control,87 % of control,94 % of control,118 % of control,117 % of control,88 % of control,99 % of control,92 % of control,100 % of control,111 % of control,128 % of control,81 % of control,92 % of control,61 % of control,92 % of control
